Reference: patent US9113629B2, “4-amino-6-(4-substituted-phenyl)-picolinates and 6-amino-2-(4-substituted-phenyl)-pyrimidine-4-carboxylates and their use as herbicides” (DOW AGROSCIENCES LLC, priority 2013, dated 2015)

Tested on: Key Grass and Sedge Weeds as well as Grass Crops
Assay: Post-emergent Test II herbicidal activity (Table 6)
Type: in vivo
Conditions: post-emergence, 336 h, CYPES: yellow nutsedge (Cyperus esculentus), 70 g ai/ha, read-out: Visual Growth Reduction (%) 14 Days After Application, CYPES
In short: (§1)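 Greenhouse post-emergent assay: seedlings (first/second true leaf) in Metro-Mix 360 were sprayed at 187 L/ha at a top rate plus twofold dilutions down to 1/16×; solvent-blank controls were included. Percent visual injury was read at 14 d.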

Row | SMILES | pest or weed control at 70 g/ha
1 | COc1c(N)nc(-c2ccc(Br)cc2F)nc1C(=O)O [Compound 46] | 95 to 100%

Same assay, conditions: post-emergence, 336 h, CYPES: yellow nutsedge (Cyperus esculentus), 140 g ai/ha, read-out: Visual Growth Reduction (%) 14 Days After Application, CYPES

Row | SMILES | pest or weed control at 140 g/ha
2 | COc1c(N)nc(-c2ccc(Br)cc2F)nc1C(=O)O [Compound 46] | 95 to 100%

Same assay, conditions: post-emergence, 336 h, DIGSA: crabgrass (Digitaria sanguinalis), 70 g ai/ha, read-out: Visual Growth Reduction (%) 14 Days After Application, DIGSA

Row | SMILES | pest or weed control at 70 g/ha
3 | COc1c(N)nc(-c2ccc(Br)cc2F)nc1C(=O)O [Compound 46] | 45 to 59%

Same assay, conditions: post-emergence, 336 h, DIGSA: crabgrass (Digitaria sanguinalis), 140 g ai/ha, read-out: Visual Growth Reduction (%) 14 Days After Application, DIGSA

Row | SMILES | pest or weed control at 140 g/ha
4 | COc1c(N)nc(-c2ccc(Br)cc2F)nc1C(=O)O [Compound 46] | 60 to 74%

Same assay, conditions: post-emergence, 336 h, ECHCG: barnyardgrass (Echinochloa crus-galli), 70 g ai/ha, read-out: Visual Growth Reduction (%) 14 Days After Application, ECHCG

Row | SMILES | pest or weed control at 70 g/ha
5 | COc1c(N)nc(-c2ccc(Br)cc2F)nc1C(=O)O [Compound 46] | 85 to 94%

Same assay, conditions: post-emergence, 336 h, ECHCG: barnyardgrass (Echinochloa crus-galli), 140 g ai/ha, read-out: Visual Growth Reduction (%) 14 Days After Application, ECHCG

Row | SMILES | pest or weed control at 140 g/ha
6 | COc1c(N)nc(-c2ccc(Br)cc2F)nc1C(=O)O [Compound 46] | 85 to 94%

Same assay, conditions: post-emergence, 336 h, ORYSA: rice (Oryza sativa), crop, 70 g ai/ha, read-out: Visual Growth Reduction (%) 14 Days After Application, ORYSA

Row | SMILES | pest or weed control at 70 g/ha
7 | COc1c(N)nc(-c2ccc(Br)cc2F)nc1C(=O)O [Compound 46] | 0 to 29%

Same assay, conditions: post-emergence, 336 h, ORYSA: rice (Oryza sativa), crop, 140 g ai/ha, read-out: Visual Growth Reduction (%) 14 Days After Application, ORYSA

Row | SMILES | pest or weed control at 140 g/ha
8 | COc1c(N)nc(-c2ccc(Br)cc2F)nc1C(=O)O [Compound 46] | 0 to 29%

Same assay, conditions: post-emergence, 336 h, SETFA: giant foxtail (Setaria faberi), 70 g ai/ha, read-out: Visual Growth Reduction (%) 14 Days After Application, SETFA

Row | SMILES | pest or weed control at 70 g/ha
9 | COc1c(N)nc(-c2ccc(Br)cc2F)nc1C(=O)O [Compound 46] | 75 to 84%

Same assay, conditions: post-emergence, 336 h, SETFA: giant foxtail (Setaria faberi), 140 g ai/ha, read-out: Visual Growth Reduction (%) 14 Days After Application, SETFA

Row | SMILES | pest or weed control at 140 g/ha
10 | COc1c(N)nc(-c2ccc(Br)cc2F)nc1C(=O)O [Compound 46] | 85 to 94%

Same assay, conditions: post-emergence, 336 h, SORVU: grain sorghum (Sorghum vulgare), 70 g ai/ha, read-out: Visual Growth Reduction (%) 14 Days After Application, SORVU

Row | SMILES | pest or weed control at 70 g/ha
11 | COc1c(N)nc(-c2ccc(Br)cc2F)nc1C(=O)O [Compound 46] | 45 to 59%

Same assay, conditions: post-emergence, 336 h, SORVU: grain sorghum (Sorghum vulgare), 140 g ai/ha, read-out: Visual Growth Reduction (%) 14 Days After Application, SORVU

Row | SMILES | pest or weed control at 140 g/ha
12 | COc1c(N)nc(-c2ccc(Br)cc2F)nc1C(=O)O [Compound 46] | 60 to 74%

Same assay, conditions: post-emergence, 336 h, TRZSS (wheat, Triticum aestivum), crop, 70 g ai/ha, read-out: Visual Growth Reduction (%) 14 Days After Application, TRZSS

Row | SMILES | pest or weed control at 70 g/ha
13 | COc1c(N)nc(-c2ccc(Br)cc2F)nc1C(=O)O [Compound 46] | 45 to 59%

Same assay, conditions: post-emergence, 336 h, TRZSS (wheat, Triticum aestivum), crop, 140 g ai/ha, read-out: Visual Growth Reduction (%) 14 Days After Application, TRZSS

Row | SMILES | pest or weed control at 140 g/ha
14 | COc1c(N)nc(-c2ccc(Br)cc2F)nc1C(=O)O [Compound 46] | 60 to 74%

Same assay, conditions: post-emergence, 336 h, ZEAMX: maize, corn (Zea mays), crop, 70 g ai/ha, read-out: Visual Growth Reduction (%) 14 Days After Application, ZEAMX

Row | SMILES | pest or weed control at 70 g/ha
15 | COc1c(N)nc(-c2ccc(Br)cc2F)nc1C(=O)O [Compound 46] | 45 to 59%

Same assay, conditions: post-emergence, 336 h, ZEAMX: maize, corn (Zea mays), crop, 140 g ai/ha, read-out: Visual Growth Reduction (%) 14 Days After Application, ZEAMX

Row | SMILES | pest or weed control at 140 g/ha
16 | COc1c(N)nc(-c2ccc(Br)cc2F)nc1C(=O)O [Compound 46] | 45 to 59%

Tested on: not given
Assay: not given
Conditions: not given

Row | melting point | SMILES
17 | 133 to 135 °C | COc1c(N)nc(-c2ccc(Br)cc2F)nc1C(=O)O [Compound 46]

Tested on: Key Broadleaf Weed and Crop Species
Assay: Post-emergent Test II herbicidal activity (Table 5)
Type: in vivo
Conditions: post-emergence, 336 h; ABUTH: velvetleaf (Abutilon theophrasti); application rate 70 g ai/ha; 14 days after application; read-out: Visual Growth Reduction (%) 14 Days After Application, ABUTH
In short: as §1

Row | SMILES | pest or weed control at 70 g/ha
18 | COc1c(N)nc(-c2ccc(Br)cc2F)nc1C(=O)O [Compound 46] | 95 to 100%

Same assay, conditions: post-emergence, 336 h; ABUTH: velvetleaf (Abutilon theophrasti); application rate 140 g ai/ha; 14 days after application; read-out: Visual Growth Reduction (%) 14 Days After Application, ABUTH

Row | SMILES | pest or weed control at 140 g/ha
19 | COc1c(N)nc(-c2ccc(Br)cc2F)nc1C(=O)O [Compound 46] | 95 to 100%

Same assay, conditions: post-emergence, 336 h; AMARE: redroot pigweed (Amaranthus retroflexus); application rate 70 g ai/ha; 14 days after application; read-out: Visual Growth Reduction (%) 14 Days After Application, AMARE

Row | SMILES | pest or weed control at 70 g/ha
20 | COc1c(N)nc(-c2ccc(Br)cc2F)nc1C(=O)O [Compound 46] | 85 to 94%

Same assay, conditions: post-emergence, 336 h; AMARE: redroot pigweed (Amaranthus retroflexus); application rate 140 g ai/ha; 14 days after application; read-out: Visual Growth Reduction (%) 14 Days After Application, AMARE

Row | SMILES | pest or weed control at 140 g/ha
21 | COc1c(N)nc(-c2ccc(Br)cc2F)nc1C(=O)O [Compound 46] | 95 to 100%

Same assay, conditions: post-emergence, 336 h; BRSNN: oilseed-rape, canola (Brassica napus); application rate 70 g ai/ha; 14 days after application; read-out: Visual Growth Reduction (%) 14 Days After Application, BRSNN

Row | SMILES | pest or weed control at 70 g/ha
22 | COc1c(N)nc(-c2ccc(Br)cc2F)nc1C(=O)O [Compound 46] | 95 to 100%

Same assay, conditions: post-emergence, 336 h; BRSNN: oilseed-rape, canola (Brassica napus); application rate 140 g ai/ha; 14 days after application; read-out: Visual Growth Reduction (%) 14 Days After Application, BRSNN

Row | SMILES | pest or weed control at 140 g/ha
23 | COc1c(N)nc(-c2ccc(Br)cc2F)nc1C(=O)O [Compound 46] | 95 to 100%

Same assay, conditions: post-emergence, 336 h; CHEAL: lambsquarters (Chenopodium album); application rate 70 g ai/ha; 14 days after application; read-out: Visual Growth Reduction (%) 14 Days After Application, CHEAL

Row | SMILES | pest or weed control at 70 g/ha
24 | COc1c(N)nc(-c2ccc(Br)cc2F)nc1C(=O)O [Compound 46] | 95 to 100%

Same assay, conditions: post-emergence, 336 h; CHEAL: lambsquarters (Chenopodium album); application rate 140 g ai/ha; 14 days after application; read-out: Visual Growth Reduction (%) 14 Days After Application, CHEAL

Row | SMILES | pest or weed control at 140 g/ha
25 | COc1c(N)nc(-c2ccc(Br)cc2F)nc1C(=O)O [Compound 46] | 95 to 100%

Same assay, conditions: post-emergence, 336 h; EPHHL: wild poinsettia (Euphorbia heterophylla); application rate 70 g ai/ha; 14 days after application; read-out: Visual Growth Reduction (%) 14 Days After Application, EPHHL

Row | SMILES | pest or weed control at 70 g/ha
26 | COc1c(N)nc(-c2ccc(Br)cc2F)nc1C(=O)O [Compound 46] | 95 to 100%

Same assay, conditions: post-emergence, 336 h; EPHHL: wild poinsettia (Euphorbia heterophylla); application rate 140 g ai/ha; 14 days after application; read-out: Visual Growth Reduction (%) 14 Days After Application, EPHHL

Row | SMILES | pest or weed control at 140 g/ha
27 | COc1c(N)nc(-c2ccc(Br)cc2F)nc1C(=O)O [Compound 46] | 95 to 100%

Same assay, conditions: post-emergence, 336 h; HELAN: sunflower (Helianthus annuus); application rate 70 g ai/ha; 14 days after application; read-out: Visual Growth Reduction (%) 14 Days After Application, HELAN

Row | SMILES | pest or weed control at 70 g/ha
28 | COc1c(N)nc(-c2ccc(Br)cc2F)nc1C(=O)O [Compound 46] | 85 to 94%

Same assay, conditions: post-emergence, 336 h; HELAN: sunflower (Helianthus annuus); application rate 140 g ai/ha; 14 days after application; read-out: Visual Growth Reduction (%) 14 Days After Application, HELAN

Row | SMILES | pest or weed control at 140 g/ha
29 | COc1c(N)nc(-c2ccc(Br)cc2F)nc1C(=O)O [Compound 46] | 95 to 100%

Same assay, conditions: post-emergence, 336 h; VIOTR: wild pansy (Viola tricolor); application rate 70 g ai/ha; 14 days after application; read-out: Visual Growth Reduction (%) 14 Days After Application, VIOTR

Row | SMILES | pest or weed control at 70 g/ha
30 | COc1c(N)nc(-c2ccc(Br)cc2F)nc1C(=O)O [Compound 46] | 45 to 59%

Same assay, conditions: post-emergence, 336 h; VIOTR: wild pansy (Viola tricolor); application rate 140 g ai/ha; 14 days after application; read-out: Visual Growth Reduction (%) 14 Days After Application, VIOTR

Row | SMILES | pest or weed control at 140 g/ha
31 | COc1c(N)nc(-c2ccc(Br)cc2F)nc1C(=O)O [Compound 46] | 95 to 100%
